From ChEMBL document CHEMBL1146129, “First dual M3 antagonists-PDE4 inhibitors: synthesis and SAR of 4,6-diaminopyrimidine derivatives” (Bioorg Med Chem Lett, 2006)

What was measured:
[1] = molecular target: T1, Muscarinic acetylcholine receptor M3 (Homo sapiens, UniProt P20309); experiment: biochemical; format: cell-based, CHO
Target sequence in this assay (P20309 whole entry): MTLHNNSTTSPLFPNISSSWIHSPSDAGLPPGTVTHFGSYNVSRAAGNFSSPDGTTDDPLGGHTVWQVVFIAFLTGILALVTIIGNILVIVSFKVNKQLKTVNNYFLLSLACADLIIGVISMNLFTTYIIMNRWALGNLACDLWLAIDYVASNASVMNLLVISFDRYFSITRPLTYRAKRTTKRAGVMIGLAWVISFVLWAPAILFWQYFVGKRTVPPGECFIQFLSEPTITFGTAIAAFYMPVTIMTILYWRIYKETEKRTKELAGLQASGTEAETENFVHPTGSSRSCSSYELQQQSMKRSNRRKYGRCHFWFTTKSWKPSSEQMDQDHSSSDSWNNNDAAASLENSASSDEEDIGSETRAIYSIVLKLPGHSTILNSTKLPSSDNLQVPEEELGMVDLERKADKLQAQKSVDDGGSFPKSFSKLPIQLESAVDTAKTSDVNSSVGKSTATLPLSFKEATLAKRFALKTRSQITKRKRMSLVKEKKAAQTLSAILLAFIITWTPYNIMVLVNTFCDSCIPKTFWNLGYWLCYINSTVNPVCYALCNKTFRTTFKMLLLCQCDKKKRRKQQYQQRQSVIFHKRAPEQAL

[2] = physchem
Description: Dissociation constant, pKa of the compound

[3] = molecular target: Phosphodiesterase 4 (Homo sapiens, UniProt P27815+Q08499+Q07343+Q08493); format: functional, cell-based; details: u-937
Description: Inhibition of PDE4 activity in U937 cells

[4] = buffer, pH 7.4
[5] = molecular target: T1, Muscarinic acetylcholine receptor M3; experiment: Displacement of [3H]methylscopolamine from recombinant human muscarinic M3 receptors expressed in CHO cells at 10 um; format: cell-based
Target sequence in this assay (P20309 whole entry, looked up): as the sequence (P20309 whole entry) above

SMILES	Ki [1]	pKa [2]	IC50 [3]	LogK-IAMex [4]	inhibition [5]
Brc1c(NC2CC2)nc(C2CC2)nc1N1CCCCCC1	316 nM	6.21	630 nM	–	–
CCC1CCN(c2nc(C3CC3)nc(NC3CC3)c2C)CC1	50 nM	–	630 nM	3.21	–
C1CCCN(c2nc(C3CC3)nc3c2CCCN3)CC1	50 nM	–	500 nM	–	–
Cc1c(NC2CC2)nc(C2CC2)nc1N1CCOCC1	–	–	790 nM	1.45	< 50%
Nc1c(NC2CC2)nc(C2CC2)nc1N1CCCCCC1	79 nM	7.15	790 nM	–	–
COc1c(NC2CC2)nc(C2CC2)nc1N1CCSCC1	398 nM	6.47	2500 nM	–	–
Cc1c(NC2CC2)nc(C2CC2)nc1N1CCC(Cc2ccccc2)CC1	790 nM	–	2000 nM	3.89	–
O=[N+]([O-])c1c(NC2CC2)nc(C2CC2)nc1N1CCCCCC1	2510 nM	4.64	1260 nM	–	–
Cc1c(NC2CCCCCC2)nc(C2CC2)nc1NC1CC1	398 nM	–	2000 nM	2.98	–
Cc1c(NCc2ccccc2)nc(C2CC2)nc1NC1CC1	200 nM	–	4000 nM	2.36	–
Cc1c(NC2CC2)nc(C2CC2)nc1N1CCC(F)(F)CC1	50 nM	–	400 nM	2.5	–
Fc1c(NC2CC2)nc(C2CC2)nc1N1CCCCCC1	251 nM	6.44	630 nM	–	–
Cc1c(N[C@H]2C[C@@H]2C)nc(C2CC2)nc1N1CCCCCC1	7.9 nM	–	7900 nM	–	–
Cc1c(NC2CC2)nc(Cc2ccccc2)nc1N1CCCCCC1	501 nM	–	1000 nM	–	–
Cc1c(NC2CC2)nc(C2CC2)nc1N1CCC(CO)CC1	501 nM	–	630 nM	1.57	–
Cc1c(NC2CC2)nc(C2CC2)nc1N1CCCCC1	13 nM	–	500 nM	2.5	–
Fc1c(NC2CC2)nc(C2CC2)nc1N1CCSCC1	–	5.27	250 nM	–	< 50%
C1CCCN(c2nc(C3CC3)nc3c2CCCCN3)CC1	10 nM	–	1300 nM	–	–
Cc1c(NC2CC2)nc(C2CCC2)nc1N1CCCCCC1	40 nM	–	2000 nM	–	–
Cc1c(NC2CC2)nc(C(C)C)nc1N1CCCCCC1	25 nM	–	2500 nM	–	–
C[C@@H]1C[C@H]1c1nc(NC2CC2)cc(N2CCCCCC2)n1	398 nM	–	2500 nM	–	–
Cc1c(NCc2cccs2)nc(C2CC2)nc1NC1CC1	126 nM	–	6300 nM	2.21	–
Cc1c(NC2CC2)nc(C2CC2)nc1N1CC=CCC1	32 nM	–	790 nM	2.37	–

SMILES	Ki [1]	pKa [2]	IC50 [3]	LogK-IAMex [4]	inhibition [5]
Cc1c(NC2CC2)nc(C2CCCC2)nc1N1CCCCCC1	79 nM	–	1260 nM	–	–
Cc1c(NCCc2cccs2)nc(C2CC2)nc1NC1CC1	79 nM	–	2500 nM	2.57	–
Cc1c(NC2CC2)nc(C2CC2)nc1N1CCc2ccccc2C1	316 nM	–	500 nM	2.97	–
C=C1CCN(c2nc(C3CC3)nc(NC3CC3)c2C)CC1	79 nM	–	400 nM	2.7	–
Cc1c(NC2CC2)nc(C2CC2)nc1N1CCC(C)CC1	16 nM	–	630 nM	2.8	–
Cc1c(NC2CC2)nc(C2CC2)nc1N1CCCC1	100 nM	–	1600 nM	2.36	–
Cc1c(NC2CC2)nc(C2CC2)nc1N1CC2CCC(C2)C1	6.3 nM	–	500 nM	3.11	–
c1c(NC2CC2)nc(C2CC2)nc1N1CCCCCC1	63 nM	8.03	400 nM	–	–
CCc1c(NC2CC2)nc(C2CC2)nc1N1CCSCC1	100 nM	6.78	1600 nM	–	–
Cc1c(NC2CC2)nc(C2CC2)nc1N1CCC(O)CC1	501 nM	–	4000 nM	1.2	–
Cc1c(NC2CC2)nc(CC2CC2)nc1N1CCCCCC1	126 nM	–	2000 nM	–	–
Cc1c(NC2CC2)nc([C@@H]2C[C@H]2C)nc1N1CCCCCC1	32 nM	–	3200 nM	–	–
Cc1c(NC2CC2)nc(C2CC2)nc1N1CCC(C)(C)CC1	25 nM	–	320 nM	3.02	–
Cc1c(NC2CCCCC2)nc(C2CC2)nc1NC1CC1	316 nM	–	2500 nM	2.71	–
Cc1c(NC2CC2)nc(C2CC2)nc1N1CCSCC1	79 nM	6.99	320 nM	2.14	–
Cc1c(NCc2c(F)cccc2F)nc(C2CC2)nc1NC1CC1	63 nM	–	2000 nM	2.38	–
Cc1c(NC2CC2)nc(C2CC2)nc1N1CCCCCCC1	16 nM	–	1600 nM	3.05	–
Cc1c(NC2CCC2)nc(C2CC2)nc1N1CCCCCC1	7.9 nM	–	2000 nM	–	–
Cc1c(NC2CC2)nc(C2CC2)nc1N1CCC(=O)CC1	3200 nM	–	3200 nM	1.35	–
Cc1c(NC2CC2)nc(C2CC2)nc1N1CCC2(CCCC2)CC1	158 nM	–	790 nM	3.66	–
Cc1c(NC2CC2)nc(C2CC2)nc1N(C)Cc1ccccc1	251 nM	–	400 nM	2.7	–
Cc1c(NC2(C)CC2)nc(C2CC2)nc1N1CCCCCC1	10 nM	–	6300 nM	–	–
Cc1c(NC2CC2)nc(C2CC2)nc1N1CCC(C(F)(F)F)CC1	100 nM	–	2000 nM	2.94	–
